# Active and inactive are the calls of the source. The rule behind the calls is not given here.
# Target: Alkaline phosphatase, tissue-nonspecific isozyme (Homo sapiens) (UniProt P05186)
# Assay: human TNAP activity change by analogs – biochemical, set 2, selectivity assay for mouse IAP activator project, SAR follow-up (AID 588605)
# Settings: TNAP enzyme assay, SAR counter-screen for mouse IAP activators
# Sequence of Alkaline phosphatase, tissue-nonspecific isozyme (Homo sapiens) (P05186 whole entry, looked up): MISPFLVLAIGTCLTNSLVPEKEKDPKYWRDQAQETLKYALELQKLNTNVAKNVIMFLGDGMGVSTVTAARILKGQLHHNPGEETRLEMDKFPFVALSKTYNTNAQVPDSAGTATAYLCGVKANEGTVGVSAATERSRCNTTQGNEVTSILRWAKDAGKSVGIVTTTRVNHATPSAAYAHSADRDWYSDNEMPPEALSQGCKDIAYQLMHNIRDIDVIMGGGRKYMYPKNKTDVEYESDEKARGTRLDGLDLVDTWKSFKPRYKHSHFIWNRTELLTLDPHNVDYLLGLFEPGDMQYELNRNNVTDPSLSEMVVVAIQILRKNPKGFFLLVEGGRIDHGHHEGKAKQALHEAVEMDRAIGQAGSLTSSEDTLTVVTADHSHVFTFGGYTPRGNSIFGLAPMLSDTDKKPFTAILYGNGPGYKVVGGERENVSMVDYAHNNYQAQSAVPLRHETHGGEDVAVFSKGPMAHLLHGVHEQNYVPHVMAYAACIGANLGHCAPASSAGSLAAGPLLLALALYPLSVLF
row,SMILES,EC50
1,Cc1ccc(S(=O)(=O)N(C)C)cc1NC(=S)NC(=O)C12CC3CC(CC(C3)C1)C2,> 100 µM (inactive)
2,CCOc1cc(CCNC(=S)Nc2ccc(S(=O)(=O)N(C)C)cc2)ccc1OC,> 100 µM (inactive)
3,O=S(=O)(c1ccc(NC(=S)NCC(c2ccccc2)c2ccccc2)cc1)N1CCCC1,19.9 µM
4,CN(C)S(=O)(=O)c1cccc(NC(=S)NCCc2cccc(F)c2)c1,> 100 µM (inactive)
5,CCN(CC)S(=O)(=O)c1ccc(NC(=S)NCCC(c2ccccc2)c2ccccc2)cc1,29.7 µM
6,COc1ccc(CNC(=S)Nc2ccc(S(=O)(=O)N3CCCCC3)cc2)cc1OC,75.3 µM
7,Cc1ccc(S(=O)(=O)N(C)C)cc1NC(=S)NC(C)CCC(C)C (centres undefined),87.1 µM
8,Cc1ccc(C)c(NC(=S)Nc2ccc(S(=O)(=O)N3CCCCC3)cc2)c1,> 100 µM (inactive)
9,O=c1c2ccccc2[nH]c(=S)n1-c1cccc(S(=O)(=O)N2CCCC2)c1,> 100 µM (inactive)
10,COc1ccc(CCNC(=S)Nc2ccc(S(=O)(=O)N3CCCCC3)cc2)cc1OC,94.4 µM
11,CCN(CC)S(=O)(=O)c1ccc(NC(=S)NCC(c2ccccc2)c2ccccc2)cc1,45.8 µM
12,CN(C)S(=O)(=O)c1cccc(NC(=S)NCCc2ccc(Br)cc2)c1,86.7 µM
13,CN(C)S(=O)(=O)c1cccc(NC(=S)NC(c2ccccc2)c2ccccc2)c1,20 µM
14,O=S(=O)(c1ccc(NC(=S)NCc2cccc(F)c2)cc1)N1CCCCC1,53.6 µM
15,O=C(NC(=S)Nc1cc(S(=O)(=O)N2CCOCC2)ccc1N1CCOCC1)c1ccco1,> 100 µM (inactive)
16,CC(CNC(=S)Nc1cccc(S(=O)(=O)N(C)C)c1)N1CCN(c2ccccc2)CC1 (centres undefined),> 100 µM (inactive)
17,CN(C)S(=O)(=O)c1ccc(NC(=S)NCCc2ccccc2)cc1,> 100 µM (inactive)
18,O=S(=O)(c1ccc(NC(=S)NCC(c2ccccc2)c2ccccc2)cc1)N1CCCCC1,25.5 µM
19,CCN(CC)CCCNC(=S)Nc1cccc(S(=O)(=O)N(C)C)c1,> 100 µM (inactive)
20,CN(C)S(=O)(=O)c1ccc(NC(=S)NC(c2ccccc2)c2ccccc2)cc1,18.4 µM
21,CC1CCN(S(=O)(=O)c2ccc(NC(=S)NCCC(c3ccccc3)c3ccccc3)cc2)CC1,18.9 µM
22,O=C(CCc1ccccc1)NC(=S)Nc1cccc(S(=O)(=O)N2CCCC2)c1,> 100 µM (inactive)

row,SMILES,EC50
1,Cc1ccc(CNC(=S)Nc2ccc(S(=O)(=O)N(C)C)cc2)cc1,86.1 µM
2,CN(C)S(=O)(=O)c1ccc(NC(=S)NCc2ccc(Cl)cc2)cc1,> 100 µM (inactive)
3,CN(C)S(=O)(=O)c1cccc(NC(=S)NCCC(c2ccccc2)c2ccccc2)c1,> 100 µM (inactive)
4,CN(C)S(=O)(=O)c1cccc(NC(=S)NCCc2cccc(Br)c2)c1,57.9 µM
5,O=S(=O)(c1ccc(NC(=S)NC(c2ccccc2)c2ccccc2)cc1)N1CCCCC1,11 µM
6,Cc1ccc(S(=O)(=O)N(C)C)cc1NC(=S)NCCCn1ccnc1,> 100 µM (inactive)
7,CC1CCN(S(=O)(=O)c2ccc(NC(=S)NC(c3ccccc3)c3ccccc3)cc2)CC1,> 100 µM (inactive)
8,Cc1ccc(S(=O)(=O)N(C)C)cc1NC(=S)NC(C)CCCC(C)C (centres undefined),57.9 µM
9,CN(C)S(=O)(=O)c1cccc(NC(=S)NCCN2CCCC2)c1,> 100 µM (inactive)
10,COc1cccc(CNC(=S)Nc2ccc(S(=O)(=O)N(C)C)cc2)c1,> 100 µM (inactive)
11,CN(C)S(=O)(=O)c1cccc(NC(=S)NC(C)(C)CC(C)(C)C)c1,91.5 µM
12,O=C(NC(=S)Nc1cc(S(=O)(=O)N2CCOCC2)ccc1O)c1ccco1,> 100 µM (inactive)
13,CN(C)S(=O)(=O)c1ccc(NC(=S)NCC(c2ccccc2)c2ccccc2)cc1,95.2 µM
14,CN(C)S(=O)(=O)c1cccc(NC(=S)NCCCn2ccnc2)c1,> 100 µM (inactive)
15,CN(C)CCCNC(=S)Nc1cccc(S(=O)(=O)N(C)C)c1,> 100 µM (inactive)
16,CN(CCc1ccccc1)C(=S)Nc1cccc(S(=O)(=O)N(C)C)c1,> 100 µM (inactive)
17,CC1CC(NC(=S)Nc2cccc(S(=O)(=O)N(C)C)c2)CC(C)N1 (centres undefined),> 100 µM (inactive)
18,O=S(=O)(c1ccc(NC(=S)NCCC(c2ccccc2)c2ccccc2)cc1)N1CCCC1,49.8 µM
19,CN(C)S(=O)(=O)c1cccc(NC(=S)NCC(c2ccccc2)c2ccccc2)c1,22.9 µM
20,COc1ccc(CCNC(=S)Nc2ccc(S(=O)(=O)N3CCCCC3)cc2)cc1,40.1 µM
21,CN(CCc1ccccn1)C(=S)Nc1cccc(S(=O)(=O)N(C)C)c1,> 100 µM (inactive)
22,O=S(=O)(c1ccc(NC(=S)NCCC(c2ccccc2)c2ccccc2)cc1)N1CCCCC1,47.2 µM

row,SMILES,EC50
1,CN(C)CC(C)(C)CNC(=S)Nc1cccc(S(=O)(=O)N(C)C)c1,> 100 µM (inactive)
2,CN(C)S(=O)(=O)c1cccc(NC(=S)NCCc2ccc(F)cc2)c1,> 100 µM (inactive)
3,CCN(CC)c1ccc(C(=O)NC(=S)Nc2cc(S(=O)(=O)N3CCOCC3)ccc2-n2cncn2)cc1,> 100 µM (inactive)
4,Cc1ccc(S(=O)(=O)N(C)C)cc1NC(=S)NC1CCN(Cc2ccccc2)CC1,> 100 µM (inactive)
5,CN(C)S(=O)(=O)c1cccc(NC(=S)NCCCN2CCCC2=O)c1,> 100 µM (inactive)
6,COc1ccccc1CNC(=S)Nc1ccc(S(=O)(=O)N(C)C)cc1,89.9 µM
7,O=S(=O)(c1ccc(NC(=S)NC(c2ccccc2)c2ccccc2)cc1)N1CCCC1,26.1 µM
8,CC(CCc1ccccc1)NC(=S)Nc1cccc(S(=O)(=O)N(C)C)c1 (centres undefined),62.8 µM
9,CN(C)S(=O)(=O)c1cccc(NC(=S)NCc2ccc(Cl)cc2)c1,92.5 µM
10,Cc1ccc(CNC(=S)Nc2cccc(S(=O)(=O)N(C)C)c2)cc1,> 100 µM (inactive)
11,CN(C)S(=O)(=O)c1cccc(NC(=S)NCCc2cccc(O)c2)c1,> 100 µM (inactive)
12,CCN(CC)S(=O)(=O)c1ccc(NC(=S)NC(c2ccccc2)c2ccccc2)cc1,29 µM
13,CN(C)S(=O)(=O)c1ccc(NC(=S)NCCc2cccc(Br)c2)cc1,65.5 µM
14,Cc1ccccc1CNC(=S)Nc1ccc(S(=O)(=O)N(C)C)cc1,75.6 µM
15,COc1cccc(CCNC(=S)Nc2cccc(S(=O)(=O)N(C)C)c2)c1,90.3 µM
16,CN(C)S(=O)(=O)c1cccc(NC(=S)NCCc2ccccc2)c1,97.8 µM
17,CN(C)S(=O)(=O)c1ccc(NC(=S)NCCC(c2ccccc2)c2ccccc2)cc1,38.6 µM
18,CN(C)S(=O)(=O)c1ccc(NC(=S)NCCN2CCCC2)cc1,> 100 µM (inactive)
19,CN(C)S(=O)(=O)c1ccc(NC(=S)NCCc2cccc(O)c2)cc1,> 100 µM (inactive)
20,CN(C)S(=O)(=O)c1cccc(NC(=S)NCCC(=O)N2CCCC2)c1,> 100 µM (inactive)

# Source: PubChem BioAssay AID588605 (Sanford-Burnham Center for Chemical Genomics, 2011)
